Results reported in patent US9492468B2, “Methods and compositions for treatment of acute heart failure” (PERICOR THERAPEUTICS, INC., priority 2008, dated 2016).
Structures can show the parent of a compound that is named as a salt.

What was measured:
[1] = tested on: dogs with advanced heart failure; experiment: GP-531 infusion simultaneously with 8-SPT (non-selective adenosine antagonist); format: in vivo, dog; settings: for Cardiac output (CO) / Heart rate (HR) / LV end-diastolic pressure (LVEDP) / LV end-diastolic volume (EDV) / LV end-systolic volume (ESV) / Mean aortic pressure (mAoP) / Stroke volume (SV) / Systemic vascular resistance (SVR): GP-531 infusion simultaneously with 8-SPT infusion
Description: At the completion of the 6 hour constant infusion study, a secondary study was performed in 3 heart failure dogs to assess the effects of GP-531 in the presence of the non-selective adenosine antagonist 8-p-sulfophenyl theophylline (8-SPT). After baseline hemodynamic and ventriculographic measurements, 8-SPT was administered as 10 mg/kg intravenous bolus followed by 10 mg/kg/hr constant infusion for 3 hours. Infusion of GP-531 tartrate was initiated simultaneously with infusion of 8-SPT at a dose of 10 μg/kg/hr and also maintained for 3 hours. Hemodynamic and ventriculographic measurements were made at 1, 2 and 3 hours.
All hemodynamic measurements were made during left and right heart catheterizations in anesthetized dogs at each specified study time point. Heart rate (HR), mean aortic pressure (mAoP), LV end-diastolic pressure (LVEDP), stroke volume (SV), cardiac output (CO) and systemic vascular resistance (SVR) were measured at each study time point. Left ventriculograms were performed during cardiac catheterization after completion of the hemodynamic measurements. Left ventriculograms were obtained with the dog placed on its right side and digitally recorded during the injection of 20 ml of contrast material (RENO-M-60 Squibb, Princeton, N.J.). Correction for image magnification was made using a radiopaque grid placed at the level of the LV. LV end-systolic (ESV) and end-diastolic volumes (EDV) were calculated from angiographic silhouettes using the area length method (Dodge H T, et al, Am J Cardiol. 1966; 18:10-24.). Premature beats and post-extra-systolic beats were excluded from the analysis. LV ejection fraction (EF) was calculated as the ratio of the difference of end-diastolic and end-systolic volumes to end-diastolic volume times 100, as described above.
Within group hemodynamic and angiographic data were analyzed using repeated measures analysis of variance (ANOVA) with alpha set at 0.05. If the overall ANOVA was significant, then pairwise comparisons between baseline and drug or placebo dose/time point were performed using the Student-Newman-Keuls test. For this test, a p-value of <0.05 was considered significant. All data are reported as the mean±SEM.

TnI = experiment: Plasma troponin I (sandwich ELISA), dose escalation study; format: in vivo, dog
Description: Eight heart failure dogs described in Example 1 were used. Seven of 8 dogs underwent two studies, one with active drug GP-531 tartrate and one with vehicle (placebo) and 1 of 8 dogs underwent only one active drug GP-531 study. The order of active drug and placebo was randomized and performed about one week apart. In 6 of 8 dogs, after baseline hemodynamic, and ventriculographic measurements, vehicle was administered as a continuous intravenous infusion for one hour. At the end of one hour, the active drug GP-531 tartrate was administered in 3 escalating dose of continuous intravenous infusion with each dose maintained for one hour. At the end of the last drug dose, infusion was stopped and a washout period of one hour was instituted. The same infusion rates and times between doses were used when vehicle studies were performed. At the end of each hour, hemodynamic and angiographic measurements were made. Venous blood samples were obtained at baseline and at one hour after each dose. Blood samples (at least 10 mL) were centrifuged at 3000 rpm for 10 minutes and plasma withdrawn and placed in cryostorage tubes and stored upright at −20° C. for future use. In 2 of 8 dogs, active drug was administered as bolus followed by a constant infusion for 3 hours as noted below.
Plasma biomarkers were measured in Groups I and II. Troponin I (TnI) was determined in plasma based on the principle of the double antibody sandwich enzyme-linked immunosorbent assay (ELISA) (Hirano, T., et al., Immunol Today 1990, 11:443-449) and n-terminal brain natriuretic peptide (NT-pro-BNP) based on competitive ELISA (Bonow, R. O. Circulation 1996, 93:1946-1950). Both biomarkers were assayed using commercially available assay kits. Kits for NT proBNP and TnI were purchased from ALPCO Diagnostics, Salem, N.H. Using standard curves and software, the concentration of each biomarker was expressed as ng/ml for TnI and fmol/ml for NT-proBNP.

[2] = HF dogs n=3, administered simultaneously with 8-SPT, 3 h

`NC(=O)c1ncn(C2OC(CNCc3ccccc3)C(O)C2O)c1N` (centres unmarked) [GP-531 tartrate] was tested, and the “Effect on CO” value [1, 2] was “no effects”, the “Effect on EDV” value [1, 2] was “no effects” and the “Effect on EF” value [1, 2] was “no effects”. For the same molecule, the “Effect on ESV” value [1, 2] was “no effects”, the “Effect on HR” value [1, 2] was “no effects” and the “Effect on LVEDP” value [1, 2] was “no effects”. For the same molecule, the “Effect on SV” value [1, 2] was “no effects”, the “Effect on SVR” value [1, 2] was “no effects” and the “Effect on mAoP” value [1, 2] was “no effects”. For the same molecule, the “Effect on plasma TnI” value (TnI; Group I HF dogs, all doses (30, 100, 300 μg/kg/min), vs baseline) was “decreased significantly” and the “Effect on plasma TnI” value (TnI; Group II HF dogs, 30 μg/kg/min, not statistically significant) was “tended to decrease at the highest dose”.

In the case of `NC(=O)c1ncn(C2OC(CNCc3ccccc3)C(O)C2O)c1N` [GP-531, 5-amino-1-β-D-(5-benzylamino-5-deoxy-1-β-D-ribofuranosyl)imidazole-4 carboxamide], the “Cardiac output (CO)” value ([1]; HF dogs n=3, 1 h) is reported as 1.51 ± 0.08 L/min, the “Heart rate (HR)” value ([1]; HF dogs n=3, 1 h) is reported as 80 ± 4 beats/min and the “LV end-diastolic pressure (LVEDP)” value ([1]; HF dogs n=3, 1 h) is reported as 16 ± 0.0 mmHg. The “LV end-diastolic volume (EDV)” value ([1]; HF dogs n=3, 1 h) was 69 ± 3 mL, the “LV end-systolic volume (ESV)” value ([1]; HF dogs n=3, 1 h) was 50 ± 3 mL and the “Mean aortic pressure (mAoP)” value ([1]; HF dogs n=3, 1 h) was 97 ± 9 mmHg. The “Stroke volume (SV)” value ([1]; HF dogs n=3, 1 h) was 19 ± 0.6 rnl, the “Systemic vascular resistance (SVR)” value ([1]; HF dogs n=3, 1 h) was 5089 ± 203 dynes-sec-cm^−5 and the “Cardiac output (CO)” value ([1]; HF dogs n=3, 2 h) was 1.57 ± 0.15 L/min. For the same molecule, the “Heart rate (HR)” value ([1]; HF dogs n=3, 2 h) was 81 ± 5 beats/min, the “LV end-diastolic pressure (LVEDP)” value ([1]; HF dogs n=3, 2 h) was 16 ± 0.3 mmHg and the “LV end-diastolic volume (EDV)” value ([1]; HF dogs n=3, 2 h) was 69 ± 3 mL. The “LV end-systolic volume (ESV)” value ([1]; HF dogs n=3, 2 h) was 49 ± 2 mL, the “Mean aortic pressure (mAoP)” value ([1]; HF dogs n=3, 2 h) was 82 ± 6 mmHg and the “Stroke volume (SV)” value ([1]; HF dogs n=3, 2 h) was 19 ± 0.9 rnl. The “Systemic vascular resistance (SVR)” value ([1]; HF dogs n=3, 2 h) was 4191 ± 84 dynes-sec-cm^−5, the “Cardiac output (CO)” value ([1]; HF dogs n=3, 3 h) was 1.53 ± 0.05 L/min and the “Heart rate (HR)” value ([1]; HF dogs n=3, 3 h) was 81 ± 6 beats/min. For the same molecule, the “LV end-diastolic pressure (LVEDP)” value ([1]; HF dogs n=3, 3 h) was 16 ± 0.3 mmHg, the “LV end-diastolic volume (EDV)” value ([1]; HF dogs n=3, 3 h) was 68 ± 3 mL and the “LV end-systolic volume (ESV)” value ([1]; HF dogs n=3, 3 h) was 49 ± 3 mL. For the same molecule, the “Mean aortic pressure (mAoP)” value ([1]; HF dogs n=3, 3 h) was 82 ± 7 mmHg, the “Stroke volume (SV)” value ([1]; HF dogs n=3, 3 h) was 19 ± 1.0 rnl and the “Systemic vascular resistance (SVR)” value ([1]; HF dogs n=3, 3 h) was 4297 ± 253 dynes-sec-cm^−5. The “Benefits on LV function in conjunction with 8-SPT” value ([1]; HF dogs, administered in conjunction with 8-SPT, non-selective adenosine receptor antagonist) was “abolished”, the “Plasma TnI” value (TnI; Group I HF dogs n=3, 1 h washout after 30/100/300 μg/kg/min) was 0.36 ± 0.03 pg/mL and the “Plasma TnI” value (TnI; Group I HF dogs n=3, iv 30 μg/kg/min, 1 h) was 0.17 ± 0.03 pg/mL. For the same molecule, the “Plasma TnI” value (TnI; Group I HF dogs n=3, iv 100 μg/kg/min, 1 h) was 0.13 ± 0.02 pg/mL, the “Plasma TnI” value (TnI; Group I HF dogs n=3, iv 300 μg/kg/min, 1 h) was 0.15 ± 0.05 pg/mL and the “Plasma TnI” value (TnI; Group II HF dogs n=3, 1 h washout after 3/10/30 μg/kg/min) was 0.31 ± 0.05 pg/mL. For the same molecule, the “Plasma TnI” value (TnI; Group II HF dogs n=3, iv 3 μg/kg/min, 1 h) was 0.51 ± 0.05 pg/mL, the “Plasma TnI” value (TnI; Group II HF dogs n=3, iv 10 μg/kg/min, 1 h) was 0.50 ± 0.15 pg/mL and the “Plasma TnI” value (TnI; Group II HF dogs n=3, iv 30 μg/kg/min, 1 h) was 0.19 ± 0.05 pg/mL.
